Our source for the IC50 values is US20260108512A1, “COMPOUNDS, COMPOSITIONS AND METHODS OF TREATING DISORDERS” (HOTSPOT THERAPEUTICS, INC., priority 2022, published 2026).

Some results are limits rather than exact numbers.

This test deals with T1, Cbl-b (Homo sapiens, UniProt Q13191).
T1 construct: biotin (biotinylated protein)
T1 sequence (Q13191 40-426): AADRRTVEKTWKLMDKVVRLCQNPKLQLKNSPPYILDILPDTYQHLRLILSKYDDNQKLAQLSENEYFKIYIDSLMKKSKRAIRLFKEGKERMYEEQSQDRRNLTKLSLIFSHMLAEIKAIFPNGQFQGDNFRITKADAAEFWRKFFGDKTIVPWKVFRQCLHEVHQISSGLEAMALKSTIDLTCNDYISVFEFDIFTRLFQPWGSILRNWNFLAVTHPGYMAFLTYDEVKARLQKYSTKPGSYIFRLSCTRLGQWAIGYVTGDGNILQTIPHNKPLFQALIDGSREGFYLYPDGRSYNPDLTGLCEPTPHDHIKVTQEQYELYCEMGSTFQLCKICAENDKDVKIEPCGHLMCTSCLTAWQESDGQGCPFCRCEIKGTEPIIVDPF
The test is described as follows: Cbl-b LCK Ub TR-FRET assay. It is filed as biochemical. The conditions noted are these: average IC50, graded A-C; read-out: CBL-B_TR-FRET_AVG_IC50. On the procedure:
Compounds are 3-fold serially diluted in DMSO in a 384-well polypropylene plate (e.g., #P-05525-BC; Labcyte) to generate a source plate with 10 concentrations of each compound, top concentration=2 mM. 80 nL of DMSO or compounds are transferred to each well of a black 384-well ProxiPlate (e.g., #6008260; PerkinElmer) using a Labcyte Echo, 1×assay buffer (50 mM HEPES pH7.0, 100 mM NaCl, 0.01% BSA, 0.01% Triton-X100, 1 mM DTT), 2×enzyme solution (16 nM Biotin-Cbl-b or 12 nM Biotin-c-Cbl in 1×assay buffer), 2×kinase mixture (120 nM His-LCK, 1 mM ATP, 10 mM MgCl2 in assay buffer) and 2.33×detection mixture (4.66×solution 1:163 nM Anti-HA-D2 antibody (e.g., #610HADAB:PerkinElmer), 27.96 nM Streptavidin-EU (e.g., #AD0062; PerkinElmer), 1.398 mM EDTA in 1×assay buffer+4.66×solution 2:2.796 pM UBE2D2/Methylated-HA-Ubiquitin thioester adduct (e.g., BostonBiochem) in 1×assay buffer) are prepared. 4 μL of 2×enzyme solution are added to each well containing compound, briefly centrifuged to mix, and incubated for 60 min at room temperature. 4 μL of 2×kinase mixture is added, briefly centrifuged to mix, and incubated for 90 min. at room temperature. 6 μL of detection mixture is added to all wells and briefly centrifuged before incubating for 20 min at room temperature. Plates am read for TR-FRET using an Envision at excitation 340 nm, emission at 615 and 665 nm, 4 flashes per well. IC50 is generated using no LCK as the low control and DMSO as the high control.
On the technique in general: Time-resolved FRET reads energy transfer from a long-lived donor to a nearby acceptor.
`Cn1cnnc1[C@H](F)C1(c2cccc(-n3cc4c(C(F)(F)F)cc(CNC5(C)CCC5)cn4c3=O)c2)COC1` (single isomer, unassigned) [Compound 2]: the IC50 is 501 to 10000 nM.

Take `Cn1cnnc1[C@@H](F)C1(c2cccc(-n3cc4c(C(F)(F)F)cc(CNC5(C)CCC5)cn4c3=O)c2)COC1` (single isomer, unassigned) [Compound 3]: the IC50 is 501 to 10000 nM. Consider `Cn1cnnc1[C@@H](F)C1(c2cccc(-n3cc4c(C(F)(F)F)cc(CN)cn4c3=O)c2)COC1` (single isomer, unassigned) [Compound 5], for which the IC50 lay within 101 to 500 nM.

Consider `Cn1cnnc1[C@@H](F)[C@](C)(F)c1cccc(-n2cc3c(C(F)(F)F)cc(CN4CCC5(CC5)C4)cn3c2=O)c1` (single isomer, unassigned) [Compound 6], for which the IC50 is < 100 nM.

Regarding `Cn1cnnc1[C@@H](F)[C@](C)(F)c1cccc(-n2cc3c(C(F)(F)F)cc(CN4CCC5(CC5)C4)cn3c2=O)c1` (single isomer, unassigned) [Compound 7], the IC50 is 101 to 500 nM. For the compound `COC[C@H]1CCCN1Cc1cc(C(F)(F)F)c2cn(-c3cccc(C4([C@H](F)c5nncn5C)COC4)c3)c(=O)n2c1` (single isomer, unassigned) [Compound 10], the IC50 is 501 to 10000 nM. For the compound `COC[C@H]1CCCN1Cc1cc(C(F)(F)F)c2cn(-c3cccc(C4([C@@H](F)c5nncn5C)COC4)c3)c(=O)n2c1` (single isomer, unassigned) [Compound 11], the IC50 is 101 to 500 nM. Next, `CC(C)[C@H]1CN(C)CCN1Cc1cc(C(F)(F)F)c2cn(-c3cccc(C4([C@@H](F)c5nncn5C)CC(F)(F)C4)c3)c(=O)n2c1` (single isomer, unassigned) [Compound 12]: < 100 nM.

Turning to `CC(C)[C@H]1CN(C)CCN1Cc1cc(C(F)(F)F)c2cn(-c3cccc(C4([C@H](F)c5nncn5C)CC(F)(F)C4)c3)c(=O)n2c1` (single isomer, unassigned) [Compound 13], the IC50 is < 100 nM. Turning to `Cn1cnnc1[C@H](F)C1(c2cccc(-n3cc4c(C(F)(F)F)cc(CN5CC(C)(CO)C5)cn4c3=O)c2)COC1` (single isomer, unassigned) [Compound 14], the IC50 lay within 101 to 500 nM.

As for `Cn1cnnc1[C@@H](F)C1(c2cccc(-n3cc4c(C(F)(F)F)cc(CN5CC(C)(CO)C5)cn4c3=O)c2)COC1` (single isomer, unassigned) [Compound 15], the IC50 was < 100 nM. For the compound `Cn1cnnc1[C@H](F)C1(c2cccc(-n3cc4c(C(F)(F)F)cc(CN5CC6CC5C6)cn4c3=O)c2)COC1` (single isomer, unassigned) [Compound 16], the IC50 is < 100 nM. On to `Cn1cnnc1[C@@H](F)C1(c2cccc(-n3cc4c(C(F)(F)F)cc(CN5CC6CC5C6)cn4c3=O)c2)COC1` (single isomer, unassigned) [Compound 17], for which the IC50 is 101 to 500 nM. In the case of `Cn1cnnc1[C@H](F)C1(c2cccc(-n3cc4c(C(F)(F)F)cc(CN5CCC5)cn4c3=O)c2)COC1` (single isomer, unassigned) [Compound 18], the IC50 was < 100 nM. Regarding `Cn1cnnc1[C@@H](F)C1(c2cccc(-n3cc4c(C(F)(F)F)cc(CN5CCC5)cn4c3=O)c2)COC1` (single isomer, unassigned) [Compound 19], the IC50 fell in the range of 101 to 500 nM.

Turning to `CC(C)[C@H]1CN(C)CCN1Cc1cc(C(F)(F)F)c2cn(-c3cccc(C4([C@@H](F)c5nncn5C)COC4)c3)c(=O)n2c1` (single isomer, unassigned) [Compound 20], the IC50 was < 100 nM. Take `CC(C)[C@H]1CN(C)CCN1Cc1cc(C(F)(F)F)c2cn(-c3cccc(C4([C@H](F)c5nncn5C)COC4)c3)c(=O)n2c1` (single isomer, unassigned) [Compound 21]: the IC50 is < 100 nM. As for `CC(C)[C@H]1CN(C)CCN1Cc1cc(C(F)(F)F)c2cn(-c3cccc(C4(Cc5nncn5C(F)F)COC4)c3)c(=O)n2c1` [Compound 1], the IC50 was < 100 nM. For `Cn1cnnc1[C@H](F)C1(c2cccc(-n3cc4c(C(F)(F)F)cc(CN)cn4c3=O)c2)COC1` [Compound 4], the IC50 is 101 to 500 nM. For the compound `Cn1cnnc1[C@@H](F)[C@@](C)(F)c1cccc(-n2cc3c(C(F)(F)F)cc(CN4CCC5(CC5)C4)cn3c2=O)c1` [Compound 8], the IC50 lay within 101 to 500 nM. Regarding `Cn1cnnc1[C@H](F)[C@@](C)(F)c1cccc(-n2cc3c(C(F)(F)F)cc(CN4CCC5(CC5)C4)cn3c2=O)c1` [Compound 9], the IC50 lay in the range of 501 to 10000 nM.
